Measured values published in patent US11111214B2 (priority 2013, dated 2021).

What was measured:
[1] = target: T1, recombinant human mu (MOR) opioid receptor (Homo sapiens, UniProt P35372); assay: biochemical; format: binding; conditions: for inhibition at 10 µM: read-out: Mu receptor % inhibition at single concentration, % inhibition @ 10 μM
T1 construct: expressed in transfected cells; host or cells: CHO-K1 cell membranes

[2] = target: T2, KOR (kappa opioid receptor) (Homo sapiens, UniProt P41145); assay: cell-based
T2 construct: expressed in transfected cells; host or cells: CHO-K1 cells stably expressing KOR
T2 sequence (P41145 whole entry): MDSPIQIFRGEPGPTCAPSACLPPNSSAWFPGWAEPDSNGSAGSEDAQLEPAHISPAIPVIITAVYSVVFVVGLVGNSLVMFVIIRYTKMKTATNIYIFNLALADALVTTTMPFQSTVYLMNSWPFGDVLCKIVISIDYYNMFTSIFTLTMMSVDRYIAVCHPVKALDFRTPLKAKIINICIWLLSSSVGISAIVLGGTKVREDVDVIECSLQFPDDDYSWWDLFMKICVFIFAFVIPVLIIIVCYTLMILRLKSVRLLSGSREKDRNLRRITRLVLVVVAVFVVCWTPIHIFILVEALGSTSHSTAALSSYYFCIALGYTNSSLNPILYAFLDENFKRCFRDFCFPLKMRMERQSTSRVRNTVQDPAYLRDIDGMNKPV

[3] = target: T3, recombinant human kappa (KOR) opioid receptor (Homo sapiens, UniProt P41145); assay: biochemical; format: binding
T3 construct: expressed in transfected cells; host or cells: CHO-K1 cell membranes
T3 sequence (P41145 whole entry): as above

T1 sequence (P35372 whole entry): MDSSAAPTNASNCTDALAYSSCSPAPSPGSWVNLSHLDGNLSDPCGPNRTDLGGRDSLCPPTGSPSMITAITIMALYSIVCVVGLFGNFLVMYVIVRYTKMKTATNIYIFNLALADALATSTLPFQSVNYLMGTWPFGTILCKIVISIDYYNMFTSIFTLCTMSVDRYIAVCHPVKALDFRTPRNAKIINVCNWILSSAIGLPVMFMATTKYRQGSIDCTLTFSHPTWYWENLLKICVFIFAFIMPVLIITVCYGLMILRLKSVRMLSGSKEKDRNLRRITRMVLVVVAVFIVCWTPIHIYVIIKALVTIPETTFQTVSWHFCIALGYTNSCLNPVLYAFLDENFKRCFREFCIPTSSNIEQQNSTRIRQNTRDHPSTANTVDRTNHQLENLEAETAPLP

Compound	IC50 [1]	inhibition at 10 µM [1]	EC50 [2]	IC50 [3]	Ki [3]
COCCOCCOCCOCCOCCO[C@H]1CCN(C[C@H](c2ccccc2)N(C)C(=O)Cc2ccc(Cl)c(Cl)c2)C1 [compound 7, 2-(3,4-Dichlorophenyl)-N-methyl-N-{(1S)-2-[(3S)-3-(2,5,8,11,14-pentaoxahexadecan-16-yloxy)pyrrolidin-1-yl]-1-phenylethyl}acetamide]	15600 nM	68.6%	9 nM	298 nM	68.8 nM
COCCOCCOCCOCCOCCO[C@H]1CCN(C[C@H](c2ccccc2)N(C)C(=O)CNc2ccccc2)C1 [compound 8, N-Methyl-N-{(1S)-2-[(3S)-3-(2,5,8,11,14-pentaoxahexadecan-16-yloxy)pyrrolidin-1-yl]-1-phenylethyl}-N^2-phenylglycinamide]		47.5%	74.7 nM	1480 nM	342 nM
COCCOCCOCCOCCOCCO[C@H]1CCN(C[C@H](c2ccccc2)N(C)C(=O)C(c2ccccc2)c2ccccc2)C1 [compound 9, N-Methyl-N-{(1S)-2-[(3S)-3-(2,5,8,11,14-pentaoxahexadecan-16-yloxy)pyrrolidin-1-yl]-1-phenylethyl}-2,2-diphenylacetamide]		36.9%	178 nM	8970 nM	2070 nM
COCCOCC(=O)Nc1cccc([C@@H](CN2CC[C@H](O)C2)N(C)C(=O)C(c2ccccc2)c2ccccc2)c1 [compound 11, N-[(1S)-2-[(3S)-3-Hydroxypyrrolidin-1-yl]-1-(3-{[(2-methoxyethoxy)acetyl]amino}phenyl)ethyl]-N-methyl-2,2-diphenylacetamide]		45.2%	5.02 nM	58.1 nM	13.4 nM
COCCOCCOCCOCCOCCOCC(=O)Nc1cccc([C@@H](CN2CCCC2)N(C)C(=O)C(c2ccccc2)c2ccccc2)c1 [compound 12, N-{3-[(1S)-1-[(Diphenylacetyl)(methyl)amino]-2-(pyrrolidin-1-yl)ethyl]phenyl}-2,5,8,11,14,17-hexaoxanonadecan-19-amide]	53300 nM	46.5%	36.1 nM	849 nM	196 nM
COCCOCCOCCOCCOCCOc1ccc(CC(=O)N(C)[C@H](CN2CCCC2)c2ccccc2)cc1 [compound 13, N-Methyl-2-[4-(2,5,8, 11, 14-pentaoxahexadecan-16-yloxy)phenyl]-N-[(1S)-1-phenyl-2-(pyrrolidin-1-yl)ethyl]acetamide]		69.9%		1320 nM	305 nM
CN(C(=O)Cc1ccc(Cl)c(Cl)c1)[C@H](CN1CCCC1)c1cccc(NS(C)(=O)=O)c1 [compound 14, 2-(3,4-dichlorophenyl)-N-methyl-N-[(1S)-1-{3-[(methylsulfonyl)amino]phenyl}-2-(pyrrolidin-1-yl)ethyl]acetamide]		99.3%	0.05 nM	0.34 nM	0.08 nM
COCCOCCOCCOCCOCCNC(=O)Nc1cccc([C@@H](CN2CCCC2)N(C)C(=O)Cc2ccc(Cl)c(Cl)c2)c1 [compound 15, 2-(3,4-dichlorophenyl)-N-methyl-N-[(1S)-1-{3-[(2,5,8,11,14-pentaoxahexadecan-16-ylcarbamoyl)amino]phenyl}-2-(pyrrolidin-1-yl)ethyl]acetamide]		84.1%	0.42 nM	2.33 nM	0.54 nM
COCCOCCOCCOCCOCCNC(=O)Nc1cccc([C@@H](CN2CCCC2)N(C)C(=O)C(c2ccc(Cl)cc2)c2ccc(Cl)cc2)c1 [compound 16, 2,2-Bis(4-chlorophenyl)-N-methyl-N-[(1S)-1-{3-[(2,5,8,11,14-pentaoxahexadecan-16-ylcarbamoyl)amino]phenyl}-2-(pyrrolidin-1-yl)ethyl]acetamide]		27.1%	15.1 nM	62.7 nM	14.5 nM
COCCOCCOCCO[C@H]1CCN(C[C@H](c2cccc(NS(C)(=O)=O)c2)N(C)C(=O)Cc2ccc(Cl)c(Cl)c2)C1 [compound 17, 2-(3,4-dichlorophenyl)-N-[(1S)-2-[(3S)-3-{2-[2-(2-methoxyethoxy)ethoxy]ethoxy}pyrrolidin-1-yl]-1-{3-[(methylsulfonyl)amino]phenyl}ethyl]-N-methylacetamide]		81.9%	67.3 nM	1570 nM	362 nM
COCCS(=O)(=O)Nc1cccc([C@@H](CN2CCCC2)N(C)C(=O)Cc2ccc(Cl)c(Cl)c2)c1 [compound 18, 2-(3,4-dichlorophenyl)-N-[(1S)-1-(3-{[(2-methoxyethyl)sulfonyl]amino}phenyl)-2-(pyrrolidin-1-yl)ethyl]-N-methylacetamide]		97.8%	0.09 nM	0.57 nM	0.13 nM
COCCOCCS(=O)(=O)Nc1cccc([C@@H](CN2CCCC2)N(C)C(=O)Cc2ccc(Cl)c(Cl)c2)c1 [compound 20, 2-(3,4-dichlorophenyl)-N-[(1S)-1-[3-({[2-(2-methoxyethoxy)ethyl]sulfonyl}amino)phenyl]-2-(pyrrolidin-1-yl)ethyl]-N-methylacetamide]		97.1%	0.15 nM	0.6 nM	0.14 nM
CCCCOCCOCCOCCS(=O)(=O)Nc1cccc([C@@H](CN2CCCC2)N(C)C(=O)Cc2ccc(Cl)c(Cl)c2)c1 [compound 21, N-[(1S)-1-{3-[({2-[2-(2-butoxyethoxy)ethoxy]ethyl}sulfonyl)amino]phenyl}-2-(pyrrolidin-1-yl)ethyl]-2-(3,4-dichlorophenyl)-N-methylacetamide]		96.5%	0.2 nM	0.18 nM	0.04 nM
CN(C(=O)Cc1ccc(Cl)c(Cl)c1)[C@H](CN1CCCC1)c1cccc(NS(=O)(=O)C2CS(=O)(=O)CC2O)c1 (stereo partly drawn) [compound 22, 2-(3,4-dichlorophenyl)-N-[(1S)-1-(3-{[(4-hydroxy-1,1-dioxidotetrahydrothiophen-3-yl)sulfonyl]amino}phenyl)-2-(pyrrolidin-1-yl)ethyl]-N-methylacetamide]		90.2%	0.03 nM	0.32 nM	0.07 nM
CN(C(=O)Cc1ccc(Cl)c(Cl)c1)[C@H](CN1CC[C@H](OCC(=O)O)C1)c1ccccc1 [compound 24, ({(3S)-1-[(2S)-2-{[(3,4-dichlorophenyl)acetyl](methyl)amino}-2-phenylethyl]pyrrolidin-3-yl}oxy)acetic Acid]	158000 nM	-7.9%	265 nM	3590 nM	468 nM
CN(C(=O)Cc1ccc(Cl)c(Cl)c1)[C@H](CN1CC[C@H](OCCO)C1)c1ccccc1 [compound 25, 2-(3,4-Dichlorophenyl)-N-{(1S)-2-[(3S)-3-(2-hydroxyethoxy)pyrrolidin-1-yl]-1-phenylethyl}-N-methylacetamide]	4510 nM	57.5%	4.07 nM	31.8 nM	4.15 nM
CN(C(=O)Cc1ccc(Cl)c(Cl)c1)[C@H](CN1CC[C@H](OCCOCCO)C1)c1ccccc1 [compound 26, 2-(3,4-Dichlorophenyl)-N-[(1S)-2-{(3S)-3-[2-(2-hydroxyethoxy)ethoxy]pyrrolidin-1-yl}-1-phenylethyl]-N-methylacetamide]	38700 nM	35.1%	14.3 nM	1130 nM	148 nM
CN(C(=O)Cc1ccc(Cl)c(Cl)c1)[C@H](CN1CC[C@H](OCCOCCOCCO)C1)c1ccccc1 [compound 27, 2-(3,4-Dichlorophenyl)-N-{(1S)-2-[(3S)-3-{2-[2-(2-hydroxyethoxy)ethoxy]ethoxy}pyrrolidin-1-yl]-1-phenylethyl}-N-methylacetamide]	9220 nM	50.4%	4.38 nM	106 nM	13.8 nM
CN(C(=O)Cc1ccc(Cl)c(Cl)c1)[C@H](CN1CC[C@H](OCCOCC(=O)O)C1)c1ccccc1 [compound 28, [2-({(3S)-1-[(2S)-2-{[(3,4-Dichlorophenyl)acetyl](methyl)amino}-2-phenylethyl]pyrrolidin-3-yl}oxy)ethoxy]acetic Acid]	73400 nM	4.9%	148 nM	2100 nM	274 nM
CN(C(=O)Cc1ccc(Cl)c(Cl)c1)[C@H](CN1CC[C@H](OCCOCCOCC(=O)O)C1)c1ccccc1 [compound 29, {2-[2-({(3S)-1-[(2S)-2-{[(3,4-Dichlorophenyl)acetyl](methyl)amino}-2-phenylethyl]pyrrolidin-3-yl}oxy)ethoxy]ethoxy}acetic Acid]	25900 nM	30.5%	41.2 nM	580 nM	111 nM
CCCCOCCOCCOCCS(=O)(=O)Nc1cccc([C@@H](CN2CCCC2)N(C)C(=O)Cc2ccccn2)c1 [compound 30, N-[(1S)-1-{3-[({2-[2-(2-Butoxyethoxy)ethoxy]ethyl}sulfonyl)amino]phenyl}-2-(pyrrolidin-1-yl)ethyl]-N-methyl-2-(pyridin-2-yl)acetamide]		85.5%	38.9 nM	464 nM	60.5 nM
COCCOCCOCCO[C@H]1CCN(C[C@H](c2ccc(C(F)(F)F)cc2)N(C)C(=O)Cc2ccc(Cl)c(Cl)c2)C1 [compound 33, 2-(3,4-Dichlorophenyl)-N-{(1S)-2-[(3S)-3-{2-[2-(2-methoxyethoxy)ethoxy]ethoxy}pyrrolidin-1-yl]-1-[4-(trifluoromethyl)phenyl]ethyl}-N-methylacetamide]		84.1%		1240 nM	285 nM
COCCOCCOCCOCCOCCO[C@H]1CCN(C[C@H](c2ccccc2)N(C)C(=O)Cc2ccccc2[N+](=O)[O-])C1 [compound 41, N—((S)-2-((S)-3-(2,5,8,11,14-pentaoxahexadecan-16-yloxy)pyrrolidin-1-yl)-1-phenylethyl)-N-methyl-2-(2-nitrophenyl)acetamide]		20.5%		5200 nM	1200 nM
